In patent US20250270201A1, “SUBSTITUTED PYRIMIDINYL HYDRAZIDE COMPOUND AND PREPARATION METHOD AND USE THEREOF” (ARIGENX THERAPEUTICS CO., LTD., priority 2022, published 2025):

Target: T1, AHR (Homo sapiens, UniProt P35869)
T1 construct: A human liver cancer cell line HepG2 endogenously expressing an AHR protein; host or cells: HepG2 stably transfected with a CYP1A1-promoter firefly luciferase reporter
T1 sequence (P35869 11-848): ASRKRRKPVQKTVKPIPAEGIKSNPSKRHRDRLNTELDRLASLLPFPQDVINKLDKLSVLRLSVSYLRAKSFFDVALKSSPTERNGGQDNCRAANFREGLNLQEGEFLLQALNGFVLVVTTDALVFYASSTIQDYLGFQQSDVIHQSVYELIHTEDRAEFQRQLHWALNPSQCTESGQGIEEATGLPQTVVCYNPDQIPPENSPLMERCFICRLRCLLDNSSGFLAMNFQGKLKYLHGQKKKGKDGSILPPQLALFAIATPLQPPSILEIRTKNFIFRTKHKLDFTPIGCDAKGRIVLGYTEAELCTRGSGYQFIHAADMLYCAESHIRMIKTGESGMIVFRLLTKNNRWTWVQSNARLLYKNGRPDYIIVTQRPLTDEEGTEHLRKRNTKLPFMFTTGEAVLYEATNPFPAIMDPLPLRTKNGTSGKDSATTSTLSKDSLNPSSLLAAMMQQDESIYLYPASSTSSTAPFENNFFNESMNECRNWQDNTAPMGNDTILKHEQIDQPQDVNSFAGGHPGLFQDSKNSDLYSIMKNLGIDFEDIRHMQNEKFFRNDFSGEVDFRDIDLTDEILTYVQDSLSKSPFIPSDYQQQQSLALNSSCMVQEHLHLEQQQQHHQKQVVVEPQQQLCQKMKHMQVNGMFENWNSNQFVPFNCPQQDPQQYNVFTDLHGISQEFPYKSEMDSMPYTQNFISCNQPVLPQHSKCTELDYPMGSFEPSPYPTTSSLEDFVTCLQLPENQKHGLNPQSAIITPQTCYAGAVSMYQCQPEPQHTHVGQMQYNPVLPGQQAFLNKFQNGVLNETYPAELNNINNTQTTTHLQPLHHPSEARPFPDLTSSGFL
Test: Antagonistic effect for AHR in HepG2 cells stably transfected with CYP1A1-promoter firefly luciferase reporter
Type: cell-based
Conditions: AHR agonist-stimulated, 24 h compound treatment, average of two replicates
Excerpt: A human liver cancer cell line HepG2 endogenously expressing an AHR protein (provided by the Stem Cell Bank of the Chinese Academy of Sciences) was adopted for testing. The expression of a CYP1A1 gene is regulated by an activity of AHR. After being activated, AHR can bind to a sequence called XRE on a CYP1A1 enhancer and initiate the expression of the CYP1A1 gene. To quantitatively determine an impact of a compound on the activity of AHR, a 1,200 bp (−1,143 to +57) regulatory sequence upstream of a promoter of the CYP1A1 gene was synthesized through gene synthesis and then inserted into a plasmid vector carrying firefly luciferase. The plasmid was then linearized through single enzyme cleavage and then transfected into HepG2 cells through lipofectin transfection (Lipofectamine 3000), and transfected HepG2 cells were screened by puromycin to obtain a stably-expressed cell line. When an antagonistic effect of a compound for AHR was tested, the expression of firefly luciferase was initiated by an AHR agonist (such as L-kynurenine, kynurenic acid, indirubin, TCDD, and 2-(1H-indol-3-ylcarbonyl)-4-thiazolecarboxylic acid methyl ester (ITE)), and cells were treated with the compound at different concentrations. Then, the inhibition on the expression of luciferase by the compound was measured.
Stably-transfected HepG2 cells were sub-cultivated in Minimum Eagle's medium (MEM) at 37° C. and 5% carbon dioxide. In the MEM, 1 mM sodium pyruvate, 2 mM GlutaMax, 1×non- essential amino acids, 10% Australian fetal bovine serum, 100 U/mL penicillin-streptomycin, and 5 μg/mL puromycin were supplemented. Before testing, HepG2 cells were inoculated into a 96-well plate at a density of 5-8×10^4 cells/well and cultivated for 24 h to 48 h to allow a cell confluency of about 90% before a drug treatment (puromycin was not added in a medium). Before the drug treatment, AHR agonist-containing 2×compound solutions at different concentrations were prepared with a same medium, and then a half of a cell culture medium in the 96-well plate was replaced with a 2×compound solution. An AHR agonist solution including only DMSO at a corresponding concentration was set as a negative control group, and CH223191 at a corresponding concentration (commercially available) was set as a positive control group. 2 separate replicate tests were set for each compound (including a positive control and a negative control). 24 h after the compound treatment, HepG2 cells were lysed by a Steady-Glo luciferase detection system of Promega, and a luciferase signal was measured by an InfiniteM1000 Pro microplate reader of Tecan.
In terms of data processing, for each replicate test of each compound, inhibition percentages of a compound at different concentrations on an activity of AHR were calculated sequentially with a signal of a well at a compound concentration of 0 as 100% and a cell signal of an untreated agonist as 0. Corresponding IC50 of a compound was calculated with an average value of data of two replicates according to the formula
tirougn non-nnear ning, where y represents an inhibition percentage and x represents a concentration of a corresponding compound.
IC50 for each compound was shown in Table 2, where A indicates IC50≤500 nM, B indicates 500 nM<IC50≤1.0 μM, C indicates 1 μM<IC50≤5.0 μM, and D indicates IC50>5.0 μM.

| SMILES | IC50 |
| --- | --- |
| C[C@@H]1COCCN1NC(=O)c1cc(-c2ccc(C(F)(F)F)cc2)nc(-c2cnn(C)c2)n1 [Compound 38] | 500 to 1000 nM |
| CC1(C)COCCN1NC(=O)c1cc(-c2ccc(Cl)cc2)nc(-c2cccnc2)n1 [Compound 26] | ≤ 500 nM |
| Cc1ccc(-c2cc(C(=O)NN(C(C)C)C(C)CO)nc(-c3cccnc3)n2)cc1 (centres unmarked) [Compound 49] | ≤ 500 nM |
| CC1(C)CN(NC(=O)c2cc(-c3ccc(C(F)(F)F)cc3)nc(-c3cccnc3)n2)CCO1 [Compound 31] | 500 to 1000 nM |
| CC(C)N(NC(=O)c1cc(-c2ccc(C(F)(F)F)cc2)nc(-c2cccc(F)c2)n1)C(C)CO (centres unmarked) [Compound 61] | ≤ 500 nM |
| CCN(NC(=O)c1cc(-c2ccc(Cl)cc2)nc(-c2cccc(F)c2)n1)C(C)CO (centres unmarked) [Compound 54] | ≤ 500 nM |
| O=C(NN1CCS(=O)(=O)CC1)c1cc(-c2ccc(C(F)(F)F)cc2)nc(-c2cccnc2)n1 [Compound 25] | 500 to 1000 nM |
| CC(C)N(NC(=O)c1cc(-c2ccc(C(F)(F)F)nc2)nc(-c2cccc(F)c2)n1)C(C)CO (centres unmarked) [Compound 65] | 500 to 1000 nM |
| C[C@H]1COCCN1NC(=O)c1cc(-c2ccc(C(F)(F)F)cc2)nc(-c2cnn(C)c2)n1 [Compound 39] | ≤ 500 nM |
| C[C@H]1COCCN1NC(=O)c1cc(-c2ccc(C(F)(F)F)cc2)nc(-c2cccnc2)n1 [Compound 4] | ≤ 500 nM |
| CC(C)N(NC(=O)c1cc(-c2ccc(OC(F)(F)F)cc2)nc(-c2cccnc2)n1)C(C)CO (centres unmarked) [Compound 14] | ≤ 500 nM |
| CC1COCC(=O)N1NC(=O)c1cc(-c2ccc(Cl)cc2)nc(-c2cccnc2)n1 (centres unmarked) [Compound 28] | 500 to 1000 nM |
| Cc1ccc(-c2cc(C(=O)NN(C(C)C)C(C)CO)nc(-c3cccnc3)n2)s1 (centres unmarked) [Compound 62] | 500 to 1000 nM |
| C[C@H]1COCCN1NC(=O)c1cc(-c2ccc(Cl)cc2)nc(-c2cccnc2)n1 [Compound 8] | ≤ 500 nM |
| CN(CCO)NC(=O)c1cc(-c2ccc(C(F)(F)F)cc2)nc(-c2cnn(C)c2)n1 [Compound 18] | ≤ 500 nM |
| CC(C)N(NC(=O)c1cc(-c2ccc(C(F)(F)F)cc2)nc(-c2cccnc2)n1)C(=O)c1cccnc1 [Compound 68] | ≤ 500 nM |
| COc1ccc(-c2cc(C(=O)NN(C(C)C)C(C)CO)nc(-c3cccnc3)n2)cc1 (centres unmarked) [Compound 48] | 500 to 1000 nM |
| CC1(C)COCCN1NC(=O)c1cc(-c2ccc(C(F)(F)F)cc2)nc(-c2cccnc2)n1 [Compound 27] | ≤ 500 nM |

| SMILES | IC50 |
| --- | --- |
| Cn1cc(-c2nc(C(=O)NN3CCOC[C@@H]3CO)cc(-c3ccc(Cl)cc3)n2)cn1 [Compound 35] | ≤ 500 nM |
| C[C@@H]1COCCN1NC(=O)c1cc(-c2ccc(C(F)(F)F)cc2)nc(-c2cccnc2)n1 [Compound 5] | ≤ 500 nM |
| CC(C)N(CCO)NC(=O)c1cc(-c2ccc(C(F)(F)F)cc2)nc(-c2cnn(C)c2)n1 [Compound 20] | ≤ 500 nM |
| Cn1cc(-c2nc(C(=O)NN3CCOC[C@H]3CO)cc(-c3ccc(C(F)(F)F)cc3)n2)cn1 [Compound 45] | ≤ 500 nM |
| CC(C)N(NC(=O)c1cc(-c2cccc(F)c2)nc(-c2cccnc2)n1)C(C)CO (centres unmarked) [Compound 58] | 500 to 1000 nM |
| CC(C)N(NC(=O)c1cc(-c2ccc(C(F)(F)F)cc2)nc(-c2cccnc2)n1)C(C)CO (centres unmarked) [Compound 1, 6-(4-trifluoromethylenyl)-N-(1-hydroxypropyy1-2-yl)-N-isopropyl-2-(pyridin-3-yl)pyrimidin-4-hydrazide] | ≤ 500 nM |
| CC(C)N(NC(=O)c1cc(-c2ccc(C(F)(F)F)nc2)nc(-c2cccc(F)c2)n1)C(C)CO (centres unmarked) [Compound 37] | ≤ 500 nM |
| O=C(NN1CCOC[C@H]1CO)c1cc(-c2ccc(Cl)cc2)nc(-c2cccnc2)n1 (stereo in doubt) [Compound 46] | ≤ 500 nM |
| O=C(NN1CCOC[C@@H]1CO)c1cc(-c2ccc(C(F)(F)F)cc2)nc(-c2cccnc2)n1 [Compound 43] | ≤ 500 nM |
| C[C@@H]1COCCN1NC(=O)c1cc(-c2ccc(Cl)cc2)nc(-c2cnn(C)c2)n1 [Compound 40] | ≤ 500 nM |
| CCN(NC(=O)c1cc(-c2ccc(C(F)(F)F)cc2)nc(-c2cccc(F)c2)n1)C(C)CO (centres unmarked) [Compound 52] | ≤ 500 nM |
| O=C(NN1CCOCC1)c1cc(-c2ccc(C(F)(F)F)cc2)nc(-c2cccnc2)n1 [Compound 24] | 500 to 1000 nM |
| O=C(NN1CCC[C@H]1CO)c1cc(-c2ccc(Cl)cc2)nc(-c2cccnc2)n1 [Compound 22] | 500 to 1000 nM |
| CCN(NC(=O)c1cc(-c2ccc(C(F)(F)F)cc2)nc(-c2cnsc2)n1)C(C)CO (centres unmarked) [Compound 57] | ≤ 500 nM |
| CCN(CCO)NC(=O)c1cc(-c2ccc(Cl)cc2)nc(-c2cccnc2)n1 [Compound 21] | ≤ 500 nM |
| CC(C)N(NC(=O)c1cc(-c2ccc(C(F)(F)F)nc2)nc(-c2cccnc2)n1)C(C)CO (centres unmarked) [Compound 60] | 500 to 1000 nM |
| CC(C)N(NC(=O)c1cc(-c2ccc(C(F)(F)F)cc2)nc(-c2cccnc2)n1)S(C)(=O)=O [Compound 67] | ≤ 500 nM |

Second part, the compound after the results:

| IC50 | SMILES |
| --- | --- |
| ≤ 500 nM | Cn1cc(-c2nc(C(=O)NN3CCOC[C@@H]3CO)cc(-c3ccc(C(F)(F)F)cc3)n2)cn1 [Compound 44] |
| ≤ 500 nM | CC(CO)NNC(=O)c1cc(-c2ccc(C(F)(F)F)cc2)nc(-c2cccnc2)n1 (centres unmarked) [Compound 13] |
| ≤ 500 nM | CC(C)N(NC(=O)c1cc(-c2ccc(Cl)cc2)nc(-c2cccnc2)n1)C(C)CO (centres unmarked) [Compound 2] |
| ≤ 500 nM | C[C@@H]1COCCN1NC(=O)c1cc(-c2ccc(OC(F)(F)F)cc2)nc(-c2cccnc2)n1 [Compound 7] |
| ≤ 500 nM | CC(O)CN(NC(=O)c1cc(-c2ccc(Cl)cc2)nc(-c2cccnc2)n1)C(C)C (centres unmarked) [Compound 32] |
| ≤ 500 nM | CN(CCO)NC(=O)c1cc(-c2ccc(Cl)cc2)nc(-c2cccnc2)n1 [Compound 17] |
| ≤ 500 nM | Cn1cc(-c2nc(C(=O)NN3CCOC[C@H]3CO)cc(-c3ccc(Cl)cc3)n2)cn1 [Compound 36] |
| ≤ 500 nM | O=C(NN1C(=O)COCC1CO)c1cc(-c2ccc(Cl)cc2)nc(-c2cccnc2)n1 (centres unmarked) [Compound 29] |
| ≤ 500 nM | O=C(NN1CCOC[C@@H]1CO)c1cc(-c2ccc(Cl)cc2)nc(-c2cccnc2)n1 [Compound 47] |
| 500 to 1000 nM | CC(C)N(NC(=O)c1cc(-c2ccc(N)cc2)nc(-c2cccnc2)n1)C(C)CO (centres unmarked) [Compound 63] |
| ≤ 500 nM | C[C@@H]1COCCN1NC(=O)c1cc(-c2ccc(Cl)cc2)nc(-c2cccnc2)n1 [Compound 9] |
| 500 to 1000 nM | CCN(NC(=O)c1cc(-c2ccc(Cl)cc2)nc(-c2cccc(C)c2)n1)C(C)CO (centres unmarked) [Compound 55] |
| ≤ 500 nM | C[C@@H]1COCCN1NC(=O)c1cc(-c2ccc(OC(F)(F)F)cc2)nc(-c2cnn(C)c2)n1 [Compound 16] |
| ≤ 500 nM | CC1COCC(=O)N1NC(=O)c1cc(-c2ccc(OC(F)(F)F)cc2)nc(-c2cccnc2)n1 (centres unmarked) [Compound 11] |
| ≤ 500 nM | CC(=O)N(NC(=O)c1cc(-c2ccc(C(F)(F)F)cc2)nc(-c2cccnc2)n1)c1cnccn1 [Compound 33] |
